The source of these data is US8580842B2, “Heteroaryl-substituted 1,3-dihydroindol-2-one derivatives and medicaments containing them” (Abbott GmbH & Co. KG, priority 2003, dated 2013).

SMILES strings stand for the structures.

In one assay the target is T1, human V1b receptors (Homo sapiens, UniProt P47901).
T1 construct: expressed in transfected cells; host or cells: CHO-K1 (membrane preparation V1b-3H2)
T1 sequence (P47901 1-424): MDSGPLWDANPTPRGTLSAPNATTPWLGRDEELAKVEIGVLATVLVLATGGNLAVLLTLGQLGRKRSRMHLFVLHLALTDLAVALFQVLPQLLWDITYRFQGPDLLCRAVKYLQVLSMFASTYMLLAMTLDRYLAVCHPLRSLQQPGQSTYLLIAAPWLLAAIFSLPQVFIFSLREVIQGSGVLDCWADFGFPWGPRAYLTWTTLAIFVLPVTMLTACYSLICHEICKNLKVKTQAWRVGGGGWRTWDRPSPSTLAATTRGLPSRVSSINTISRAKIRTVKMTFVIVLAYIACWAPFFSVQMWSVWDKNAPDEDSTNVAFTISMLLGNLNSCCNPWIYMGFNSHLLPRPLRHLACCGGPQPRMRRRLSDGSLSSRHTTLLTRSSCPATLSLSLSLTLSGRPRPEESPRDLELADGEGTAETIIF
Kind of assay: Vasopressin V1b receptor binding assay. Particulars: membranes from CHO-K1 cells expressing human V1b receptors, displacement of 1.5 nM 3H-AVP; read-out: Binding affinity for the vasopressin V1b receptor. In outline:
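Membranes from CHO-K1 cells stably expressing human V1b incubated with 1.5 nM ³H-AVP and test compound in 50 mM Tris, 10 mM MgCl2, 0.1% BSA, pH 7.4, 60 min at room temperature; non-specific binding with 10^−6 M AVP. Filtration and scintillation counting in triplicate; binding parameters by non-linear regression.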
Take `COc1ccccc1C1(N2C[C@H](O)C[C@H]2C(=O)N(C)C)C(=O)N(S(=O)(=O)c2cccs2)c2ccc(Cl)cc21` (single isomer, unassigned) [Example 29]: the Ki was less than 50 nM.
Regarding `COc1ccc(S(=O)(=O)N2C(=O)C(c3cccnc3OC)(N3C[C@H](O)C[C@H]3C(=O)N(C)C)c3cc(Cl)ccc32)c(OC)c1` (single isomer, unassigned) [Example 5], the Ki was less than 50 nM.
The same measure, in the same setting: the same measure for `COc1ccc(C2(N3C[C@H](O)C[C@H]3C(=O)N(C)C)C(=O)N(S(=O)(=O)c3cccs3)c3ccc(Cl)cc32)c(OC)n1` (single isomer, unassigned) [Example 280]: less than 50 nM; for `COc1ccccc1C1(N2C[C@H](O)C[C@H]2C(=O)N(C)C)C(=O)N(S(=O)(=O)c2cc(C)ccn2)c2ccc(Cl)cc21` (single isomer, unassigned) [Example 252]: less than 50 nM.
On to `COc1ccc(S(=O)(=O)N2C(=O)C(c3cccnc3OC)(N3C[C@H](F)C[C@H]3C(=O)N(C)C)c3cc(Cl)ccc32)c(OC)c1` (single isomer, unassigned) [Example 246], for which the Ki is less than 50 nM.
Consider `COc1ccc(S(=O)(=O)N2C(=O)C(c3cnc(OC)nc3OC)(N3C[C@H](O)C[C@H]3C(=O)N(C)C)c3cc(Cl)ccc32)cc1` (single isomer, unassigned) [Example 236], for which the Ki is less than 50 nM.
On the same count and under the same terms, the same measure for `COc1ccccc1C1(N2C[C@H](O)C[C@H]2C(=O)N(C)C)C(=O)N(S(=O)(=O)c2ccc(Cl)cn2)c2ccc(Cl)cc21` (single isomer, unassigned) [Example 52]: less than 50 nM.
`COc1ccccc1C1(N2C[C@H](O)C[C@H]2C(=O)N(C)C)C(=O)N(S(=O)(=O)c2sccc2OC)c2ccc(Cl)cc21` (single isomer, unassigned) [Example 256]: the Ki is less than 50 nM.
Same read-out and setting: the same measure for `COc1ncccc1C1(OC(=O)N2CCN(C3CCN(C)CC3)CC2)C(=O)N(S(=O)(=O)c2cc(C)sc2C)c2ccc(Cl)cc21` (stereo not shown) [Example 169, 4-(1-Methyl-piperidin-4-yl)-piperazine-1-carboxylic acid 5-chloro-1-(2,5-dimethyl-thiophene-3-sulfonyl)-3-(2-methoxy-pyridin-3-yl)-2-oxo-2,3-dihydro-1H-indol-3-yl ester diacetate]: 50 to 500 nM; for `COc1ncccc1C1(OC(=O)N2CCN(C3CCN(C)CC3)CC2)C(=O)N(S(=O)(=O)c2cn(C)c(C)n2)c2ccc(Cl)cc21` (stereo not shown) [Example 166, 4-(1-Methyl-piperidin-4-yl)-piperazine-1-carboxylic acid 5-chloro-1-(1,2-dimethyl-1H-imidazole-4-sulfonyl)-3-(2-methoxy-pyridin-3-yl)-2-oxo-2,3-dihydro-1H-indol-3-yl ester diacetate]: 50 to 500 nM.

For a further assay, the system named is Male Sprague Dawley rats. Kind of assay: Rat forced swim test. The class given is in vivo. As to conditions: ip; rat forced swim model, intraperitoneal route, three times before re-testing; read-out: ED50 (decrease of immobility time). An excerpt:
Antidepressant Effects of Compounds of this Invention in the Rat Forced Swim Model
The potential antidepressant effects of some examples of this invention were examined in the rat forced swim test. When rats are forced to swim in a cylinder from which no escape is possible they readily adopt a characteristic immobile posture and make no further attempts to escape except for small movements needed to keep floating. The immobility is considered to reflect a ‘depressive mood’ (Porsolt R D, LePichon M, Jalfre M (1977). Depression: a new animal model sensitive to antidepressant treatment. Nature 266, 730-732.), in which animals cease to struggle to escape the aversive situation. The immobility induced by the procedure is influenced by a wide variety of antidepressants (Porsolt R D, Lenegre A, McArthur R A (1991). Pharmacological models of depression. In: Animal models in Psychopharmacology. B. Olivier, J. Mos, J. L. Slangen (eds) Birkhauser Verlag, Basel, pp. 137-159.) and has a good predictive validity in that it detects antidepressants with different mechanisms of action. Administration of antidepressants such as fluoxetine increases the time an animal struggles (decreases the immobility time) when forced to swim in a confined space. Lack of struggling is thought to represent a state of despair.
Procedure: Male Sprague Dawley rats (Janvier) weighing 160-200 gram (n=6) were placed individually into a glass water tank (40 cm×21.5 cm) filled with tap water (25° C.) up to 18 cm. This pre-test lasted for 15 min. Twenty-four hours later, animals were re-tested for 5 min in the same water tank while the total immobility time, swimming time and climbing time were recorded. Rats were considered immobile when they made no further attempts to escape, except for movements necessary to keep their heads above water (Porsolt R D, Anton G, Blavet N & Jalfre M. (1978). Behavioural despair in rats: a new model sensitive to antidepressant treatments. European Journal of Pharmacology 47, 379-391). The absence of hind limb movements was recorded as immobility using a stopwatch by a single observer. […]
As a reminder, the ED50 is the dose at which the effect has come halfway, by size or by number of responders. On to `COc1ccc(S(=O)(=O)N2C(=O)[C@@](c3ccccc3OC)(N3C[C@H](O)C[C@H]3C(=O)N(C)C)c3cc(Cl)ccc32)c(OC)c1` [SSR149415, reference compound], for which the ED50 was more than 30 mg/kg.
With `COc1ccccc1C1(N2C[C@H](O)C[C@H]2C(=O)N(C)C)C(=O)N(S(=O)(=O)c2cccs2)c2ccc(Cl)cc21` (single isomer, unassigned) [Example 29], the ED50 is less than 30 mg/kg.
Consider `COc1ccc(S(=O)(=O)N2C(=O)C(c3cccnc3OC)(N3C[C@H](O)C[C@H]3C(=O)N(C)C)c3cc(Cl)ccc32)c(OC)c1` (single isomer, unassigned) [Example 5], for which the ED50 was less than 30 mg/kg.
